Reference: ChEMBL document CHEMBL1201862, “PubChem BioAssay data set” (2004)
Active and inactive are the calls of the source.

What was measured:
[1] = biological target: Photoreceptor-specific nuclear receptor (Homo sapiens, UniProt Q9Y5X4); format: functional;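 further: potency for compounds that break the NR2E3 corepressor complex and count as activators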
[2] = biological target: Peroxisome proliferator-activated receptor gamma/Nuclear receptor coactivator 1 (Homo sapiens, UniProt P37231); test: (§1) TR-FRET dose response biochemical High Throughput Screening assay for agonists of the steroid receptor coactivator 1 (SRC-1) recruitment by the peroxisome proliferator-activated receptor gamma (PPAR gamma): non-selective agonists. [Related pubchem assays (depositor defined):AID1300, AID1808, AID504735, AID631]; format: protein assay
[3] = biological target: Peroxisome proliferator-activated receptor gamma/Nuclear receptor coactivator 3 (Homo sapiens, UniProt P37231); test: as §1, with “3 (SRC-3)” for “1 (SRC-1)”, “assays: 1301 (Confirmation screen.), 1048 (Primary screen.)]” for “assays (depositor defined):AID1300, AID1808, AID504735, AID631]”; format: functional
[4] = biological target: Peroxisome proliferator-activated receptor gamma/Nuclear receptor coactivator 2 (Homo sapiens, UniProt P37231); test: TR-FRET dose response biochemical High Throughput Screening assay for agonists of the steroid receptor coactivator 2 (SRC-2) recruitment by the peroxisome proliferator-activated receptor gamma (PPAR gamma): non-selective agonists. [Related pubchem assays: 1297, 1032 ]; format: functional
[5] = biological target: Peroxisome proliferator-activated receptor gamma/Nuclear receptor corepressor 2 (Homo sapiens, UniProt P37231+Q9Y618); format: functional
Cytochrome P450 2C19 = Cytochrome P450 2C19 (Homo sapiens, UniProt P33261); test: Cytochrome panel assay with activity outcomes. Panel member name: p450-cyp2c19 Compounds with AC50 equal or less than 10 uM are considered active; format: functional; settings: read-out: AC50
[6] = biological target: Cyclin-dependent kinase 5/CDK5 activator 1 (Homo sapiens, UniProt Q00535); test: blockade of human CDK5 activity – biochemical, cherry-picked samples, set 2, dose response (AID 504545)
[7] = biological target: T1, Fructose-bisphosphate aldolase (Mycobacterium tuberculosis, UniProt P9WQA3); test: Fluorescence-based biochemical high throughput dose response assay for inhibitors of the fructose-bisphosphate aldolase (FBA) of M. tuberculosis.; format: functional
T1 sequence (P9WQA3 whole entry): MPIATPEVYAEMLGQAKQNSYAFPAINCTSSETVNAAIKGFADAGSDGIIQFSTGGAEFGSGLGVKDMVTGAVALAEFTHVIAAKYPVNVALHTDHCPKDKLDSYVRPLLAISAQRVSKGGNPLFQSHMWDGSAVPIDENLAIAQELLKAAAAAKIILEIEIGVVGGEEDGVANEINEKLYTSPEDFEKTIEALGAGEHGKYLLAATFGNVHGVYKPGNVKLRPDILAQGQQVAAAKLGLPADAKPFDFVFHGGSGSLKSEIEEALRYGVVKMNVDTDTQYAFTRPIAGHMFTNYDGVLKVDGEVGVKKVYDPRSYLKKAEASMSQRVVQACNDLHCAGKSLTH

[8] = A small molecule screen for inhibitors of the PhoP region in Salmonella typhi (3) using purified and synthesized compounds. [Related pubchem assays (depositor defined):AID1850, AID1864, AID1985, AID2252, AID2384, AID2612, AID2811, AID449743, AID463179]; format: functional
Wee1-like protein kinase = Wee1-like protein kinase (Homo sapiens, UniProt P30291); test: HeLa cell cycle G2/M accumulation – FACS, mechanism study for Wee1 degradation inhibitor project, late-stage follow-up, panel member Wee1 Degradation (AID 2088)
[9] = biological target: G2/mitotic-specific cyclin-B1 (Homo sapiens, UniProt P14635); test: HeLa cell cycle G2/M accumulation – FACS, mechanism study for Wee1 degradation inhibitor project, late-stage follow-up, panel member Cyclin B Degradation (AID 2088)
[10] = biological target: T2, Tyrosine-protein phosphatase non-receptor type 7 (Homo sapiens, UniProt P35236); format: functional
T2 sequence (P35236 whole entry): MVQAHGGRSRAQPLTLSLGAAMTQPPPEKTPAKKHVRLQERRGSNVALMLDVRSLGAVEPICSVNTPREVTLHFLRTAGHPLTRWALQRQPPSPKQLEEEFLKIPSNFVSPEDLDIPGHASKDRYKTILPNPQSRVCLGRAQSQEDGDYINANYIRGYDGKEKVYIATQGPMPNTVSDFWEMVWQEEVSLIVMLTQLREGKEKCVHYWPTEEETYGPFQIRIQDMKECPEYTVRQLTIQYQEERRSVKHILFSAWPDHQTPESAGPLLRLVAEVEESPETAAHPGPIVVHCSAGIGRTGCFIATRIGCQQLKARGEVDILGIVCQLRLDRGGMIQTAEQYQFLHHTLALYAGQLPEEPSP

[11] = biological target: T3, RNA-binding protein pos-1 (Caenorhabditis elegans, UniProt G5EF15); test: disruptors of C. elegans POS-1 RNA interaction – biochemical, fluorescence polarization, dose response (AID 1964);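 further: purified POS-1 fused to maltose binding protein made in E. coli; potency of compounds blocking POS-1 binding to fluorescent RNA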
T3 sequence (G5EF15 whole entry): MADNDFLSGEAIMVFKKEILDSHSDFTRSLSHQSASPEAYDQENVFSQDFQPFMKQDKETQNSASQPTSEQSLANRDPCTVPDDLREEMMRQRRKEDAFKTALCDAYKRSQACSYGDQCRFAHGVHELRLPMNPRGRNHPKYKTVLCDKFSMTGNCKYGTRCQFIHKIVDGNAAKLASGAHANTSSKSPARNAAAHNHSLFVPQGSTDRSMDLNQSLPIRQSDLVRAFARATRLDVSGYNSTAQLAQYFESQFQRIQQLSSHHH

[12] = biological target: Glyceraldehyde-3-phosphate dehydrogenase (Homo sapiens, UniProt P04406)
[13] = biological target: T4, Zinc finger protein mex-5 (Caenorhabditis elegans, UniProt Q9XUB2); test: potency of MEX-5 RNA-binding blockers – biochemical, C. elegans, fluorescence polarization, dose response (AID 1960)
T4 sequence (Q9XUB2 whole entry): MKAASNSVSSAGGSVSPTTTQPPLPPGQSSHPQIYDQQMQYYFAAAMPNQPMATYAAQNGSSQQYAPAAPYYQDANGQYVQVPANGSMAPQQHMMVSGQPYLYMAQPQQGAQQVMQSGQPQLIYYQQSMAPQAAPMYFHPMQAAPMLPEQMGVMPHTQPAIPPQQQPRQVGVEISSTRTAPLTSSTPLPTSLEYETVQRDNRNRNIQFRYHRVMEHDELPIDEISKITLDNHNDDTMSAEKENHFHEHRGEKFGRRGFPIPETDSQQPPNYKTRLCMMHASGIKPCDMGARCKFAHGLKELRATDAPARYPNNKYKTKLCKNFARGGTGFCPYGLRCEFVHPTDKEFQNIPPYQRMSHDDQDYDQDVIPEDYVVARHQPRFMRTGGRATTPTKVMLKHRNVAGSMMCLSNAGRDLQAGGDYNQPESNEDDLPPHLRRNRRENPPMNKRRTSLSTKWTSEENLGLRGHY

[14] = biological target: Heat shock cognate 71 kDa protein (Homo sapiens, UniProt P11142); test: In Vitro Hsc70 Dose Response Fluorescence Polarization Assay. [Related pubchem assays: 1072 ]
[15] = biological target: Heat shock 70 kDa protein 1A (Homo sapiens, UniProt P0DMV8); test: inhibition of Hsp70 binding activity – biochemical, fluorescence polarization, SAR follow-up (AID 1072)
[16] = biological target: T5, Dual specificity protein phosphatase 6 (Rattus norvegicus, UniProt Q64346)
T5 sequence (Q64346 whole entry): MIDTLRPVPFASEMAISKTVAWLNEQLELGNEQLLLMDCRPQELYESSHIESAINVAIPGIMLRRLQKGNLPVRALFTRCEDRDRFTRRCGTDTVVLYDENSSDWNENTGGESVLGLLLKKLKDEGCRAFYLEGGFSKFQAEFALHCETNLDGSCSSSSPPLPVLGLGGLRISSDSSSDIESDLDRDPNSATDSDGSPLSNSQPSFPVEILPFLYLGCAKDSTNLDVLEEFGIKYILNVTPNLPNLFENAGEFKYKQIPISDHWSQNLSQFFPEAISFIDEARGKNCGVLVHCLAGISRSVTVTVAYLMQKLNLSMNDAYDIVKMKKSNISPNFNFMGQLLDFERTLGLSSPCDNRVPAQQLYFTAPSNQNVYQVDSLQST

HeLa = test: viability loss in HeLa cells – cell-based, 24 h, cherry-picked samples, cytotoxicity control, dose response (AID 504726); format: functional; settings: Homo sapiens;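 further: potency for cytotoxicity as loss of luminescence signal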
ORF 73 = ORF 73 (Human herpesvirus 8, UniProt O40947); test: KSHV LANA DNA-binding disruption – biochemical, fluorescence polarization, cherry-picked samples, dose response (AID 504725); set-up: species or system Human gammaherpesvirus 8;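 further: fluorescence polarization of a labeled DNA duplex reporting LANA DNA binding; potency is for inhibitors that block LANA binding to the DNA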
Cysteine protease ATG4B = biological target: T6, Cysteine protease ATG4B (Homo sapiens, UniProt Q9Y4P1); format: functional;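 further: Fluorescence-based dose-response confirmation assay measuring inhibition of ATG4B activity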
T6 sequence (Q9Y4P1 whole entry): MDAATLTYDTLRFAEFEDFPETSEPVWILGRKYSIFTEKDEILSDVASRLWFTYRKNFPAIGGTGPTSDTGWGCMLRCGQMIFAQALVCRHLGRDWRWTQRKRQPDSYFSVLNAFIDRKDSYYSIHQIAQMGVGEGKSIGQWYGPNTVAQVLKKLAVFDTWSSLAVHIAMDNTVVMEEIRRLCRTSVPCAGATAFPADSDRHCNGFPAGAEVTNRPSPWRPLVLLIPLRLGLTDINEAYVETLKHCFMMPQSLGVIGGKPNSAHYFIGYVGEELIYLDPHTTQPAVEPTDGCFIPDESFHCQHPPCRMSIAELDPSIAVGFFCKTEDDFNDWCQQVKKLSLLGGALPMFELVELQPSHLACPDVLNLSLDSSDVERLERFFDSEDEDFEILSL

Phospholipase A2 = Phospholipase A2 (Homo sapiens, UniProt P04054); format: functional;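 further: confirmatory dose-response counterscreen on phospholipase A2, testing hits that came from an ultra-high-throughput screen for ATG4B inhibitors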
Vero = test: viability of Vero cells under compound – cytotoxicity control for flavivirus capping enzyme inhibitors (AID 588742); format: functional; settings: Chlorocebus sabaeus
[17] = biological target: T5, Dual specificity protein phosphatase 6; format: functional

Sequence of ORF 73 (O40947 whole entry): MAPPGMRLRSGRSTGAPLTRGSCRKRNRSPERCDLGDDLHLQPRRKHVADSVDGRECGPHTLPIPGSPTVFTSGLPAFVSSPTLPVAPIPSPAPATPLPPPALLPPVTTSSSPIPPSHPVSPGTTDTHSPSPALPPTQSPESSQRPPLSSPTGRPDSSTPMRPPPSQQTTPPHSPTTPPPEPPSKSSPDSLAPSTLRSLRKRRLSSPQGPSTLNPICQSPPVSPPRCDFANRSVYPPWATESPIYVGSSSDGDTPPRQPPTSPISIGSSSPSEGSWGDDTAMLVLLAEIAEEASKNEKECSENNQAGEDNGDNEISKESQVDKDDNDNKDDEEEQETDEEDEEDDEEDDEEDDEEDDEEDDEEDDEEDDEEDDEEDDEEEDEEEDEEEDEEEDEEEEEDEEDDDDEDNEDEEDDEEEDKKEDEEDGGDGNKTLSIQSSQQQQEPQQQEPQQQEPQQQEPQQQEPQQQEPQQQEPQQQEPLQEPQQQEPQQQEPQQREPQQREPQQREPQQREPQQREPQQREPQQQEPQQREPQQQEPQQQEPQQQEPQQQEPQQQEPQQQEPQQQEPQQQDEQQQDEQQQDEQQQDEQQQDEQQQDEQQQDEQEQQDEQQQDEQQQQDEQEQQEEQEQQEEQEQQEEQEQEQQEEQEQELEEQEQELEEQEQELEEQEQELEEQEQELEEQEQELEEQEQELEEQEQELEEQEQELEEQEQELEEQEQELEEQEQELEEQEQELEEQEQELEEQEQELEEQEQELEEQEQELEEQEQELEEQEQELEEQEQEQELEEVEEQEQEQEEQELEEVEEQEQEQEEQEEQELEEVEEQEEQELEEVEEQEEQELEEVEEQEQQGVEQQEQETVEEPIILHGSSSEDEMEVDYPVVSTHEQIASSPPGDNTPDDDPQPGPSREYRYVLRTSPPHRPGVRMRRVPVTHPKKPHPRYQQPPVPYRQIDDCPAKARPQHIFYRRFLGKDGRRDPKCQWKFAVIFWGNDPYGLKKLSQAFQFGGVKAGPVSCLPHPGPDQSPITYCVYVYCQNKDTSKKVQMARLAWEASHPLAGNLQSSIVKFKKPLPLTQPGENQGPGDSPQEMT
Sequence of Peroxisome proliferator-activated receptor gamma/Nuclear receptor corepressor 2 (P37231 whole entry): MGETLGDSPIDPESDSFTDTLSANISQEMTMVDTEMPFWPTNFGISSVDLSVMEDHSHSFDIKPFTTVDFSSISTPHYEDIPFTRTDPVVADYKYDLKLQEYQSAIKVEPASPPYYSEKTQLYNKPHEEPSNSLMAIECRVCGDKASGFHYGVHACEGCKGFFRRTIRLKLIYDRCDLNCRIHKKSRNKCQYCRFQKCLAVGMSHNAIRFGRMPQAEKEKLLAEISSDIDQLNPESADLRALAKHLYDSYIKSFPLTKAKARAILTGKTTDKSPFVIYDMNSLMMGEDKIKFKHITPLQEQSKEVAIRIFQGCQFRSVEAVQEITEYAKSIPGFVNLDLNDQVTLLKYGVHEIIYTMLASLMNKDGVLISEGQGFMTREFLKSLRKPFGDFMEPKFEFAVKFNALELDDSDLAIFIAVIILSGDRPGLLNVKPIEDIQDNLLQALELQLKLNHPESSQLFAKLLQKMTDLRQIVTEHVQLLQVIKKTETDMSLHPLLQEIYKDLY
Sequence of Peroxisome proliferator-activated receptor gamma/Nuclear receptor corepressor 2 (Q9Y618 whole entry): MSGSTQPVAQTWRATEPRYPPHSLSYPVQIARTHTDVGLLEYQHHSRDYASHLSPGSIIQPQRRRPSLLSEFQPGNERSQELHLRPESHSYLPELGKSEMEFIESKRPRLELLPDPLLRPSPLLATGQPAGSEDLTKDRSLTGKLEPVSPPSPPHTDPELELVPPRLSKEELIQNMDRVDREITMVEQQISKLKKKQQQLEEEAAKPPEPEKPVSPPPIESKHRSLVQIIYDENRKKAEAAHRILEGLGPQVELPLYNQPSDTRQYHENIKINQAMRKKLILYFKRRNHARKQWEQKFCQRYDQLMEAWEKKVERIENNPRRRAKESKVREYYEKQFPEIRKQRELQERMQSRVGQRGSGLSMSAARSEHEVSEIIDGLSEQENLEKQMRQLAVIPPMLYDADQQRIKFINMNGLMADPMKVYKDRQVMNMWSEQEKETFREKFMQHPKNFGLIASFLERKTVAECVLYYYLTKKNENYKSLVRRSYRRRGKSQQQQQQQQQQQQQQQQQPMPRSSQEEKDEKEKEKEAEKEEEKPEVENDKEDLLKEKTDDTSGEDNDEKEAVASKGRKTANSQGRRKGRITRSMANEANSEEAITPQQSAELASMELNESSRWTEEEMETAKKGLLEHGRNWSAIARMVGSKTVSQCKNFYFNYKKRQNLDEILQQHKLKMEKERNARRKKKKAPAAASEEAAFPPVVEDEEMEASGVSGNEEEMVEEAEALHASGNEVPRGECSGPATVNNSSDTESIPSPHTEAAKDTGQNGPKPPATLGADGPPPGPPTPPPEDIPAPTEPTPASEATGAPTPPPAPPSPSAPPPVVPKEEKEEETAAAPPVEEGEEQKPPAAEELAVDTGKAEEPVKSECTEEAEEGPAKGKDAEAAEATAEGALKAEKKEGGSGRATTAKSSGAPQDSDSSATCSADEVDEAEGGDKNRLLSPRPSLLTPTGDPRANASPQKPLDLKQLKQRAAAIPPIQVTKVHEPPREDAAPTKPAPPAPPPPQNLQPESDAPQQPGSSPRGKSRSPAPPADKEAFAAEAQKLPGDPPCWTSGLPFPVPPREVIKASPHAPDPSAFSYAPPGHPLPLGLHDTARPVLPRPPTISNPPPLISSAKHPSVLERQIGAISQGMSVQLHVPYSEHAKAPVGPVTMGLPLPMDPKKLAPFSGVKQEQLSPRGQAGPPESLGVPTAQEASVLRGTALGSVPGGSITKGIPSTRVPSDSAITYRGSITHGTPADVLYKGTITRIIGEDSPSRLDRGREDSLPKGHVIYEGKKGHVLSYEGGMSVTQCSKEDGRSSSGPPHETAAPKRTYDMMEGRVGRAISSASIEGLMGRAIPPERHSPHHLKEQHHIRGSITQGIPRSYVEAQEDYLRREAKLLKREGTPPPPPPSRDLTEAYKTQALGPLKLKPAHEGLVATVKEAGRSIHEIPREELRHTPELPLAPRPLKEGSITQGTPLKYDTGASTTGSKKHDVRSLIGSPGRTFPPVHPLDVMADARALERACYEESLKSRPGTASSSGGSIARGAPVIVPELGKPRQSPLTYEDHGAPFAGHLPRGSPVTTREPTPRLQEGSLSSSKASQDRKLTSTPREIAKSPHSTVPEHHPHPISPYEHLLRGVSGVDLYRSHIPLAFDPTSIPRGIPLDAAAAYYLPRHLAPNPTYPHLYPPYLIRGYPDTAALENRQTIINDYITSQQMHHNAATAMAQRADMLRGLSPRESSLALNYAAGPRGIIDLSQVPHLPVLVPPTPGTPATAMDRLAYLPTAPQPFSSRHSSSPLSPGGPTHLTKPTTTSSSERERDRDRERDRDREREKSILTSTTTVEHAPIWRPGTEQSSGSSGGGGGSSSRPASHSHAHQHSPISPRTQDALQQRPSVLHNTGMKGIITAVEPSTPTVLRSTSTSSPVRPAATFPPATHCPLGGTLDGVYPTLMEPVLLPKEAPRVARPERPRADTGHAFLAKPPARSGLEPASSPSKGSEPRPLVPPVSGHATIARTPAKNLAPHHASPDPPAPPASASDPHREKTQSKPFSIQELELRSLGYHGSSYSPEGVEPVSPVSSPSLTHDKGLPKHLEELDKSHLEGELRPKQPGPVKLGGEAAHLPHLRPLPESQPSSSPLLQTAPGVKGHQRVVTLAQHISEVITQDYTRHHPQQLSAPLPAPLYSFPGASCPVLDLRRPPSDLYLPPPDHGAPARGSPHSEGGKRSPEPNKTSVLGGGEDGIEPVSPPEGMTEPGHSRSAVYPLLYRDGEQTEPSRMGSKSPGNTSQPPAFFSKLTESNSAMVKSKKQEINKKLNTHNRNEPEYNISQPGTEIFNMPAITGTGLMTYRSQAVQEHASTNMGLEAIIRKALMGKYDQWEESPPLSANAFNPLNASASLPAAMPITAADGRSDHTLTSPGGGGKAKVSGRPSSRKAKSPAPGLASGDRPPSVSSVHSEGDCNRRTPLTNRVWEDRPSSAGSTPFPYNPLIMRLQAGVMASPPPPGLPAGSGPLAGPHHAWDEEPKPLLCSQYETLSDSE
Sequence of Phospholipase A2 (P04054 whole entry): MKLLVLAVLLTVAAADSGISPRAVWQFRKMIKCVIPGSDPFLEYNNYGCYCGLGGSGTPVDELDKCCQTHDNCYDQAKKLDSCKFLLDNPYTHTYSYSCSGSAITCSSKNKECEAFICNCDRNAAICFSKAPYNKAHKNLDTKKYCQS
Sequence of Wee1-like protein kinase (P30291 whole entry): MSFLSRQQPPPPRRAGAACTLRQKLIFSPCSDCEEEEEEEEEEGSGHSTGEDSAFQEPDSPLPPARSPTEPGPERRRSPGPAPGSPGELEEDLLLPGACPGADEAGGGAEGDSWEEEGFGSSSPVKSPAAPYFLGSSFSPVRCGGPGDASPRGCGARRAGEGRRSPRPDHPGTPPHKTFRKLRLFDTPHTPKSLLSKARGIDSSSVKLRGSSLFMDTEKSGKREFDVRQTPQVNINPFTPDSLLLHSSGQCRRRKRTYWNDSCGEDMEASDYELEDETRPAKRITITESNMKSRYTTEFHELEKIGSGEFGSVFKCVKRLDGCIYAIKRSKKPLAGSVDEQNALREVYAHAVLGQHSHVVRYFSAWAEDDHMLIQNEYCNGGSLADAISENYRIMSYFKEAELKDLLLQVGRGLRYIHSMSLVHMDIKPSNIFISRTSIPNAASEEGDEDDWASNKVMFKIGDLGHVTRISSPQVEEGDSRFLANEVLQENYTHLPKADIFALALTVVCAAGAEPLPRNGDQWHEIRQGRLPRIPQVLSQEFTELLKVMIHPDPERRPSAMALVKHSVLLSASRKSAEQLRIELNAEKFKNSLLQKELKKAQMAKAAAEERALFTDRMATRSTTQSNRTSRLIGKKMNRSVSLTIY

Question: For `CN(C)CCN1C(=O)C(O)=C(C(=O)c2cc3ccccc3o2)C1c1cccc(Br)c1` (centres undefined), which IC50 [1] is on record?
Answer: > 39.8 µM (not active)

Question: What about the EC50 [2] of the same compound?
Answer: > 79.4 µM (inactive)

Question: And the EC50 [3]?
Answer: > 79.4 µM (not active)

Question: And the EC50 [4]?
Answer: > 79.4 µM (not active)

Question: What about the IC50 [5] of the same compound?
Answer: 2.25 µM (active)

Question: What about the AC50 (Cytochrome P450 2C19) of the same compound?
Answer: 31.6 µM (inconclusive)

Question: What does the source list for `CNS(=O)(=O)c1ccc2c3c(cccc13)C(=O)N2`?
Answer: AC50 [6]: 32.6 µM (active); IC50 [7]: 1.6 µM (active)

Question: With `Cc1cccc(NC(=O)N2CCCN(Cc3ccccc3F)C2)c1` as the compound, how does the IC50 [8] read?
Answer: > 150 µM (active)

Question: For `Cc1ccc(NC(=O)COc2cc(=O)n(C)c3ccccc23)nc1`, which EC50 (Wee1-like protein kinase) is on record?
Answer: > 49.7 µM (inactive)

Question: What about the EC50 [9] of the same compound?
Answer: > 49.7 µM (inactive)

Question: For `O=C(O)C1Nc2ccc(Br)cc2C2C=CCC12` (centres undefined), which IC50 [10] is on record?
Answer: 1.63 µM (active)

Question: What about the EC50 [11] of the same compound?
Answer: 9.81 µM (active)

Question: What about the IC50 [12] of the same compound?
Answer: 28.7 µM (active)

Question: What about the EC50 [13] of the same compound?
Answer: 6.32 µM (active)

Question: And the IC50 [14]?
Answer: > 100 µM (not active)

Question: And the IC50 [15]?
Answer: 3.24 µM (active)

Question: What about the IC50 [16] of the same compound?
Answer: 12.8 µM (active)

Question: What about the AC50 (HeLa) of the same compound?
Answer: 106 µM (active)

Question: What about the AC50 (ORF 73) of the same compound?
Answer: 29.2 µM (active)

Question: And the IC50 (Cysteine protease ATG4B)?
Answer: 3.94 µM (active)

Question: And the IC50 (Phospholipase A2)?
Answer: 8.24 µM (active)

Question: What about the CC50 (Vero) of the same compound?
Answer: > 40 µM (active)

Question: And the IC50 [17]?
Answer: 12.3 µM (active)
